Patent US20120283295A1, “INDAZOLE DERIVATIVES AND THEIR USE FOR BLOCKADING VOLTAGE DEPENDENT SODIUM CHANNELS” (University College London, priority 2009, published 2012)
Where two headings read alike, the source gives them in different places.

What was measured:
Nav1.6 = Nav1.6 (Homo sapiens, UniProt Q9UQD0); assay: Nav isoform selectivity, Nav1.6; format: cell-based; design: concentration or dose not given beside the values
Nav1.4 = Nav1.4 (Homo sapiens, UniProt P35499); assay: Nav isoform selectivity, Nav1.4; format: cell-based; design: concentration or dose not given beside the values
Nav1.7 = Nav1.7 (Homo sapiens, UniProt Q15858); assay: Nav isoform selectivity, Nav1.7; format: cell-based; design: concentration or dose not given beside the values
Nav1.3 = Nav1.3 (Homo sapiens, UniProt Q9NY46); assay: Nav isoform selectivity, Nav1.3; format: cell-based; design: concentration or dose not given beside the values
Sequence of Nav1.3 (Q9NY46 whole entry, canonical isoform): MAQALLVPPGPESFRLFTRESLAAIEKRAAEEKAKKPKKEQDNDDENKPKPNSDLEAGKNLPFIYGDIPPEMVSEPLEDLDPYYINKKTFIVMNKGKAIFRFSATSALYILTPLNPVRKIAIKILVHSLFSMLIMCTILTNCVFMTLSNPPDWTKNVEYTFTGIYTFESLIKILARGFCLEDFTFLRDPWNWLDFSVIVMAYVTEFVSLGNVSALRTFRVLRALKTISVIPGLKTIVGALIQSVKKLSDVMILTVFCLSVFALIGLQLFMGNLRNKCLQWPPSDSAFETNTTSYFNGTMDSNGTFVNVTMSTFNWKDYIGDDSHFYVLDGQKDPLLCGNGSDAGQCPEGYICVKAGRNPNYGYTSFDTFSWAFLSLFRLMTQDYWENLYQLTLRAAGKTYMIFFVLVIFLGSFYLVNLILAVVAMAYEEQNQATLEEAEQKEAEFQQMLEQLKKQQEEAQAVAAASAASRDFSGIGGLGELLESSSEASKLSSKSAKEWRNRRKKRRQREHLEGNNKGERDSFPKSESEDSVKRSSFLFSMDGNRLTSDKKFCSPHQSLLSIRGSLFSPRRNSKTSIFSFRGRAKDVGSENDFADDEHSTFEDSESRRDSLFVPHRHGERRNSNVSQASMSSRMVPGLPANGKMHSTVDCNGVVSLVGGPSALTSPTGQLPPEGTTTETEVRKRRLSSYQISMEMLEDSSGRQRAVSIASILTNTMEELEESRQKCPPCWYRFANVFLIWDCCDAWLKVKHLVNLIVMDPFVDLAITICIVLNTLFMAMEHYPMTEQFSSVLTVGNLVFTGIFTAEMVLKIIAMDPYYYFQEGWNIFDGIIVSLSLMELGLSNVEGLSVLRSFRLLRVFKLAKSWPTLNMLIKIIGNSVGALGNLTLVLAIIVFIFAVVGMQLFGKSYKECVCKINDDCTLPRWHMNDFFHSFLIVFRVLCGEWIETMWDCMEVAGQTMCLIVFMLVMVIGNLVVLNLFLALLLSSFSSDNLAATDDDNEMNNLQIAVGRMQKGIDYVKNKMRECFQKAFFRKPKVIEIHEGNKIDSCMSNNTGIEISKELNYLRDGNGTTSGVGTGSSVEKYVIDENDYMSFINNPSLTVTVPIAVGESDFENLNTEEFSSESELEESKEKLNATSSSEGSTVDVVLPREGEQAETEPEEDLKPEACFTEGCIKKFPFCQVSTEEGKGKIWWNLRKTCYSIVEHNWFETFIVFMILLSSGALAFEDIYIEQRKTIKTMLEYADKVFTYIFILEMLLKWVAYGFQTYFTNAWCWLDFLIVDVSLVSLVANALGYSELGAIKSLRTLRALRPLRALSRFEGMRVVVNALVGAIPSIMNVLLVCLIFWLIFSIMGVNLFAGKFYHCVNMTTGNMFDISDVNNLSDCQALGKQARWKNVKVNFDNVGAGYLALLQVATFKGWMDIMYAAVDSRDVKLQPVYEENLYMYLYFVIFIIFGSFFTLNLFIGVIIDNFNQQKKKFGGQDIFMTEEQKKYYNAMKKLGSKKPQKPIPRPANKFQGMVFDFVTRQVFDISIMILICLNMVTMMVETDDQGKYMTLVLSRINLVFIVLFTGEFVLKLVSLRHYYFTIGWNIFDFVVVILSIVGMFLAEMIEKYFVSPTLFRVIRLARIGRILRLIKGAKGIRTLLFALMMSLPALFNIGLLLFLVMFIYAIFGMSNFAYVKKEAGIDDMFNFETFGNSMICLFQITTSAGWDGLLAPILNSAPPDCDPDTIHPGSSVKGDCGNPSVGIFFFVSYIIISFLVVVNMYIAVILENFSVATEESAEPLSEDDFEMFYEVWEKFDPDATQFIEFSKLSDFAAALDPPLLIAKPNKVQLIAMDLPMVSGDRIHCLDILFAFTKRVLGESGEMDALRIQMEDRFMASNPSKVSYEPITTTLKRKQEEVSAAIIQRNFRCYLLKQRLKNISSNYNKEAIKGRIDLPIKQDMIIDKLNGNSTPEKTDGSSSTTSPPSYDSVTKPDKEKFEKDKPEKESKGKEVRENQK

Nav1.1 = Nav1.1 (Homo sapiens, UniProt P35498); assay: Nav isoform selectivity, Nav1.1; format: cell-based
Description: (§2) Biological assays to determine sodium channel activity, neuroprotection and Nav isoform selectivity were carried out according to the protocols set out in Clutterbuck et al (2009), J. Med. Chem. 52, 2694-2707.

Nav1.5 [1] = target: T1, Nav1.5 (Homo sapiens, UniProt Q14524); assay: Nav isoform selectivity, Nav1.5
Nav1.8 = Nav1.8 (Homo sapiens, UniProt Q9Y5Y9); assay: Nav isoform selectivity, Nav1.8; format: cell-based; design: concentration or dose not given beside the values
[2] = test system: voltage dependent sodium channels; assay: Sodium channel activity, guanidine flux; format: cell-based
Description: as §2

Nav1.2 = Nav1.2 (Homo sapiens, UniProt Q99250); assay: Nav isoform selectivity, Nav1.2 (EP); format: cell-based; design: concentration or dose not given beside the values
Sequence of Nav1.2 (Q99250 whole entry, canonical isoform): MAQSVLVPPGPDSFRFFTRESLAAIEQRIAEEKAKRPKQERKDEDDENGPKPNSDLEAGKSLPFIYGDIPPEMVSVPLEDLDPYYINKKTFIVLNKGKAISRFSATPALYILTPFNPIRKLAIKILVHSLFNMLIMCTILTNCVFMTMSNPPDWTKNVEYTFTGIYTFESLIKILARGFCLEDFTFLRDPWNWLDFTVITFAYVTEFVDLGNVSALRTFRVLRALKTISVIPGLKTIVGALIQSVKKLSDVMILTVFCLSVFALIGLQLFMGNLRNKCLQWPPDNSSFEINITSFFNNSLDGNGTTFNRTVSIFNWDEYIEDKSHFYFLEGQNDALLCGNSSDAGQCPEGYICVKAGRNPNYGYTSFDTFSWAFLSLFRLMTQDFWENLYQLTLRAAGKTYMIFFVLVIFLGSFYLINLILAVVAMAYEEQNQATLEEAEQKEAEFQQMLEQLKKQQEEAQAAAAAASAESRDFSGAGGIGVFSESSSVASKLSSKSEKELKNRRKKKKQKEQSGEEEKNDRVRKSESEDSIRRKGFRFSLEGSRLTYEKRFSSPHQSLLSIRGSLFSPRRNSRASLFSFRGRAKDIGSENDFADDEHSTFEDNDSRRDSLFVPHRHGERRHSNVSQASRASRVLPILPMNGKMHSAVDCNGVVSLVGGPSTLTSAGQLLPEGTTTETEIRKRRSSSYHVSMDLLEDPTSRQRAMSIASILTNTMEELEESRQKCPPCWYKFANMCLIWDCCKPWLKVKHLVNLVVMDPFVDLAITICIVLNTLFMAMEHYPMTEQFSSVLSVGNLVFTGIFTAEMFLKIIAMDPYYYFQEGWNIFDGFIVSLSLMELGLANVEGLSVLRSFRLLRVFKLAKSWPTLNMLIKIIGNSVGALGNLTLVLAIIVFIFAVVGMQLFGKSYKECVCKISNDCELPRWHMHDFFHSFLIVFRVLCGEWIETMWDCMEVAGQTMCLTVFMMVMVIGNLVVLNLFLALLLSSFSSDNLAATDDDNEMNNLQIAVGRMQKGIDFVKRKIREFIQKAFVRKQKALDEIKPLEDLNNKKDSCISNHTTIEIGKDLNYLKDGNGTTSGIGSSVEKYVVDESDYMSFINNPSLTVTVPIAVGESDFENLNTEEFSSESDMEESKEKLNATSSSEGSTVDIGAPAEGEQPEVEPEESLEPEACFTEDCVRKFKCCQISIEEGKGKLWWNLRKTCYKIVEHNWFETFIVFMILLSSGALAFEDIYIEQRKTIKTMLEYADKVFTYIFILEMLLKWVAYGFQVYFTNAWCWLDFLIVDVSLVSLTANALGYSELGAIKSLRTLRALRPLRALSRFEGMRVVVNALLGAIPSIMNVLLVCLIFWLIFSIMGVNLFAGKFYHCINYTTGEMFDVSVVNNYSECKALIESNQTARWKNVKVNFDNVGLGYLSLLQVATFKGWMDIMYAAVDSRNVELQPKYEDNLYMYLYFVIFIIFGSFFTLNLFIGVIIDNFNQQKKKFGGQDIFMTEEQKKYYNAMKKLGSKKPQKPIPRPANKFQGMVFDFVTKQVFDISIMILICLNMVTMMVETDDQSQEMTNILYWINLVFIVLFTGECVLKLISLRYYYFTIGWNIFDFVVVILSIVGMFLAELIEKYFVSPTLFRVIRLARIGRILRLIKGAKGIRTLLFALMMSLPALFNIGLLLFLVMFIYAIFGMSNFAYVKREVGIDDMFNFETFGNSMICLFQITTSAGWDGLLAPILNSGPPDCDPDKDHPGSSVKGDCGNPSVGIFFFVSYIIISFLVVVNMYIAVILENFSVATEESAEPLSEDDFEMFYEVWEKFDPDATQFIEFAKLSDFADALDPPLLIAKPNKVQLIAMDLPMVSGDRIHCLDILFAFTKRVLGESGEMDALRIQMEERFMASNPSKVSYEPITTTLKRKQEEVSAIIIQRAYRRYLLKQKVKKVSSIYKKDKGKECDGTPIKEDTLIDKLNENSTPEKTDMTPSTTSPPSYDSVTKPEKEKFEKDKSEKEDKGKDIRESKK

Nav1.5 [3] = target: T1, Nav1.5
[4] = test system: induced-relapse EAE in ABH mice; assay: Induced-relapse experimental autoimmune encephalomyelitis (EAE); format: in vivo
Description: In many rodent models of MS, particularly during EAE the ABH mice, there is limited demyelination and nerve damage during the initial acute-phase of paralysis that occurs 2-3 weeks following sensitization (Baker et al. 1990, Jackson et al. 2005). Nerve damage and demyelination becomes more pronounced with disease duration and the development of relapsing disease (Baker et al. 1990). The neuroprotective potential of Example 15 was therefore examined in an induced-relapse EAE paradigm.
ABH mice were injected with 1 mg mouse spinal cord homogenate in Freunds adjuvant on days 0 and 7 p.i. to induce EAE and this was repeated on 27 p.i. to induce a relapse. Animals were injected daily i.p. with either vehicle or 10 mg/kg Example 15 from day 33 onwards. Animals were monitored for the development of clinical disease and the results represent: (A) The mean maximal clinical score, during the initial acute attack around day 15-20 and the clinical relapse around day 34-40, or the mean minimal clinical score during remission from paralytic attacks. (B) The mean daily clinical score following induction of relapse. (C) The time taken to fall from an accelerating rotorod was monitored pre-treatment on day 25 or on day 48 post-disease induction, when the experiment was terminated. (D) The spinal cords were removed and nerve content was measured using a neurofilament heavy chain (Nfh)-specific ELISA. The results represent the mean±SEM of 8 animals per group. *P<0.05, **P<0.01, ***P<0.001 compared to vehicle-treated animals.

[5] = in vivo
Description: (§1) The immunosuppressive activity of Example 15 was investigated using a simple contact-hypersensitivity paradigm. […] (Data not shown). Therefore, it was not necessary to dose-titrate Example 15 in order to avoid the immunosuppression-induced neuroprotection that would mask any real neuroprotective action of Example 15. In order to limit animal usage required for a full-dose-response, as proof-of-principle, 10 mg/kg of Example 15 i.p. was selected as an initial dose for study. This dose was within the range used in humans for sodium channel-blocking agents (1-50 mg/kg p.o.), particularly when scaled to mouse (USDHHS, 2005), and was well below the maximum tolerated dose (>50 mg/kg/daily). This was investigated for a neuroprotective potential in an induced-relapse during experimental autoimmune encephalomyelitis (EAE).

[6] = test system: lymph node proliferative responses; assay: Immunosuppressive activity, contact-hypersensitivity paradigm; format: in vivo; details: daily i.p. 5, 25 and 50 mg/kg from a day before sensitization; compared to vehicle
Description: as §1
T cell proliferation per 5×10^5 lymph node cells or proliferation adjusted for the number of cells in the lymph nodes is shown in FIGS. 2 and 3.

[7] = 10 mg/kg daily i.p. from day 33, vs vehicle

Row | SMILES | Nav isoform inhibition (%) Nav1.6 (Nav1.6) [%] | Nav isoform inhibition (%) Nav1.4 (Nav1.4) [%] | Nav isoform inhibition (%) Nav1.7 (Nav1.7) [%] | Nav isoform inhibition (%) Nav1.3 (Nav1.3) [%] | Nav isoform inhibition (%) Nav1.1 (Nav1.1) [%] | Nav isoform inhibition (%) Nav1.5 (Nav1.5 [1]) [%] | Nav isoform inhibition (%) Nav1.8 (Nav1.8) [%] | IC50 [2] [µM] | Nav isoform inhibition (%) Nav1.2 EP (Nav1.2) [%] | Nav isoform inhibition (%) Nav1.2 EP UD (Nav1.2) | other results
1 | O=C(NCc1noc(-c2c3ccccc3nn2CCn2ccnc2)n1)c1ccc2ccccc2c1 [Example 11, N-((5-(2-(2-(1H-imidazol-1-yl)ethyl)-2H-indazol-3-yl)-1,2,4-oxadiazol-3-yl)methyl)-2-naphthamide] | 86 | 97 | 33 | 63 | 83 | 98 | 91 | – | – | – | –
2 | O=C(NCc1noc(-c2c3ccccc3nn2CCn2ccnc2)n1)c1ccc(Cl)cc1 [Example 9, N-((5-(2-(2-(1H-imidazol-1-yl)ethyl)-2H-indazol-3-yl)-1,2,4-oxadiazol-3-yl)methyl)-4-chlorobenzamide] | – | – | – | – | – | – | – | 22 | – | – | –
3 | COc1cccc(C(=O)NCc2noc(-c3nn(CCn4ccnc4)c4ccccc34)n2)c1OC [Example 30, N-((5-(1-(2-(1H-imidazol-1-yl)ethyl)-1H-indazol-3-yl)-1,2,4-oxadiazol-3-yl)methyl)-2,3-dimethoxybenzamide] | 77 | 33 | 94 | 14 | 26 | 71 | 62 | – | 0.1 | 6.4% | –
4 | CC(C)(C)OC(=O)NCc1noc(-c2c3ccccc3nn2CCn2ccnc2)n1 [Example 2, tert-butyl (5-(2-(2-(1H-imidazol-1-yl)ethyl)-2H-indazol-3-yl)-1,2,4-oxadiazol-3-yl)methylcarbamate] | – | – | – | – | – | – | – | 11 | – | – | –
5 | COc1cccc(C(=O)NCc2noc(-c3c4ccccc4nn3CCn3ccnc3)n2)c1OC [Example 7, N-((5-(2-(2-(1H-imidazol-1-yl)ethyl)-2H-indazol-3-yl)-1,2,4-oxadiazol-3-yl)methyl)-2,3-dimethoxybenzamide] | – | – | – | – | – | – | – | 4 | – | – | –
6 | O=C(NCc1noc(-c2c3ccccc3nn2CCn2ccnc2)n1)c1cccc(OC(F)(F)F)c1 [Example 14, N-((5-(2-(2-(1H-imidazol-1-yl)ethyl)-2H-indazol-3-yl)-1,2,4-oxadiazol-3-yl)methyl)-3-(trifluoromethoxy)benzamide] | 79 | 98 | 46 | 41 | 96 | 95 | 94 | 32 | 98.5 | not detected | –
7 | COc1ccc(C(=O)NCc2noc(-c3nn(CCn4ccnc4)c4ccccc34)n2)c(OC)c1OC [Example 16, N-((5-(1-(2-(1H-imidazol-1-yl)ethyl)-1H-indazol-3-yl)-1,2,4-oxadiazol-3-yl)methyl)-2,3,4-trimethoxybenzamide] | 63 | 43 | 96 | 39 | 24 | – | 48 | – | 1.1 | 1.5% | Nav isoform inhibition (%) Nav1.5 (Nav1.5 [3]): 64%
8 | O=C(NCc1noc(-c2c3ccccc3nn2CCn2ccnc2)n1)c1cccc(F)c1F [Example 10, N-((5-(2-(2-(1H-imidazol-1-yl)ethyl)-2H-indazol-3-yl)-1,2,4-oxadiazol-3-yl)methyl)-2,3-difluorobenzamide] | 76 | 77 | 81 | 51 | 54 | 84 | 84 | – | – | – | –
9 | O=C(NCc1noc(-c2nn(CCn3ccnc3)c3ccccc23)n1)c1ccccc1 [Example 15, N-((5-(1-(2-(1H-imidazol-1-yl)ethyl)-1H-indazol-3-yl)-1,2,4-oxadiazol-3-yl)methyl)benzamide] | – | – | – | – | – | – | – | – | – | – | Loss of motor-function as a consequence of relapse, rotarod ([4]; 10 mg/kg daily i.p. from day 33, day 48, vs vehicle): significantly (P<0.001) reduced; Incidence, onset or maximum severity of relapsing EAE [4, 7]: did not significantly (P>0.05) inhibit; Nerve loss in spinal cord, neurofilament heavy chain ELISA [4, 7]: reduce nerve loss; Recovery of motor-function during remission (clinical score) [4, 7]: significantly (P<0.01) greater degree of recovery; Maximum tolerated dose [5]: > 50 mg/kg/daily; Inhibition of lymph node proliferative responses [6]: failed to inhibit
10 | CC(C)(C)OC(=O)NCc1noc(-c2nn(CCn3ccnc3)c3ccccc23)n1 [Example 1, tert-butyl (5-(1-(2-(1H-imidazol-1-yl)ethyl)-1H-indazol-3-yl)-1,2,4-oxadiazol-3-yl)methylcarbamate] | – | – | – | – | – | – | – | 102 | – | – | –
11 | COc1cccc(C(=O)NCc2noc(-c3c4ccccc4nn3CCn3ccnc3)n2)c1OC [Example 6, N-((5-(2-(2-(1H-imidazol-1-yl)ethyl)-2H-indazol-3-yl)-1,2,4-oxadiazol-3-yl)methyl)-2,3-dimethoxybenzamide] | 73 | 45 | 96 | 54 | 56 | 99 | 87 | 34 | 24.4 | 24.1% | –
12 | O=C(NCc1noc(-c2c3ccccc3nn2CCn2ccnc2)n1)c1ccccc1 [Example 5, N-((5-(2-(2-(1H-imidazol-1-yl)ethyl)-2H-indazol-3-yl)-1,2,4-oxadiazol-3-yl)methyl)benzamide] | – | – | – | – | – | – | – | 324 | – | – | –
